From a compilation of properties of binary mixtures (doi:10.1021/je400097b)

Experiment: xn = mol fraction of the nth substance listed
Conditions: 101 kPa

CC[NH+](C)CC.O=S(=O)([O-])C(F)(F)F + O
viscosity [mPa·s]
Conditions | x2 = 0.037 | x2 = 0.434 | x2 = 0.586 | x2 = 0.759 | x2 = 0.844 | x2 = 0.925 | x2 = 0.972
293.15 K | 53.3 | 22.3 | 14.5 | – | 4.99 | 2.86 | 1.69
313.15 K | – | 12.1 | 7.98 | 4.38 | 2.89 | 1.75 | 1.2
333.15 K | 14.6 | – | 4.97 | – | – | 1.28 | 1.01
353.15 K | 9.18 | – | 3.38 | – | 1.45 | 1.08 | 0.91

O + CC[NH+](C)CC.O=S(=O)([O-])C(F)(F)F
Conditions | viscosity [mPa·s]
293.15 K, x1 = 1 | 1.2
